Source: PMC12653048 (2025)

What was measured:
[1] = test system: s12_13_82 (DNA, aptamer) ATACCAGCTTATTCAATTCAGGGCGGTATGAGGCTCGATCAAGGTCGGAGCGAGAATTTTTTCGCGGAGTCGGCTGGATCAGATAGTAAGTGCAATCT; assay: ITC; conditions: 50 mM Na+, 3 mM Mg2+; BB: 20 mM Tris-acetate, pH 7.4, 25 °C
[2] = test system: s12_13_82m7 (DNA, aptamer) GCGCGATCAAGGTCGGAGCGTTTTCGCGGAGTCGGCTGGATCGCGC; assay: ITC; conditions: 50 mM Na+, 3 mM Mg2+; BB: 20 mM Tris-acetate, pH 7.4, 25 °C
[3] = test system: s12_13_82m1 (DNA, aptamer) GATCAAGGTCGGAGCGAGAATTTTTTCGCGGAGTCGGCTGGATC; assay: ITC; conditions: 50 mM Na+, 3 mM Mg2+; BB: 20 mM Tris-acetate, pH 7.4, 25 °C
[4] = test system: s21_K16 (DNA, aptamer) CGCATACCAGCTTAGTTCAGAATTCATTGGAGCGTGGCGTGGATGCCCGATGAACCGCCCCAGGGTGCAGATAGTAAGTGCAATCTCGGC; assay: ITC; conditions: 100 mM Na acetate, 2 mM Mg2+, 5 mM K+, 1 mM Ca2+; SB2: 20 mM Tris-acetate, pH 7.6, 25 °C; 30 μM aptamer, 350 μM KANA in syringe; KD above 300 μM undetectable
[5] = test system: s12_13_82m5 (DNA, aptamer) GCGATCAAGGTCGGAGCGAGTTCGCGGAGTCGGCTGGATCGC; assay: ITC; conditions: 50 mM Na+, 3 mM Mg2+; BB: 20 mM Tris-acetate, pH 7.4, 25 °C
[6] = test system: s21_K16 (DNA, aptamer) CGCATACCAGCTTAGTTCAGAATTCATTGGAGCGTGGCGTGGATGCCCGATGAACCGCCCCAGGGTGCAGATAGTAAGTGCAATCTCGGC; assay: CD spectroscopy; conditions: 100 mM Na acetate, 2 mM Mg2+, 5 mM K+, 1 mM Ca2+; SB2: 20 mM Tris-acetate, pH 7.6, 25 °C; 2 μM aptamer, 20 μM KANA
[7] = test system: s25_Kana6-1 (DNA, aptamer) GACGACGAGGGCCTGAAACTTGCTGGAACGGTTAAAGTCGTC; assay: CD spectroscopy; conditions: 300 mM Na acetate, 10 mM Mg2+, 5 mM K+; SB3: 50 mM MES-NaOH, pH 7.0, 25 °C; 2 μM aptamer, 20 μM KANA
[8] = test system: s12_13_82 (DNA, aptamer) ATACCAGCTTATTCAATTCAGGGCGGTATGAGGCTCGATCAAGGTCGGAGCGAGAATTTTTTCGCGGAGTCGGCTGGATCAGATAGTAAGTGCAATCT; assay: CD spectroscopy; conditions: 50 mM Na acetate, 3 mM Mg2+; BB: 20 mM Tris-acetate, pH 7.4, 25 °C; 2 μM aptamer, 20 μM KANA
[9] = test system: s11_Kana2 (DNA, aptamer) CACCTAATACGACTCACTATAGCGGATCCGAAGATGGGGGTTGAGGCTAAGCCGACCGTAAGTTGGGCCGTCTGGCTCGAACAAGCTTGC; assay: ITC; conditions: 50 mM Na acetate, 5 mM K+, 5 mM Mg2+; SB1: 20 mM Tris-acetate, pH 8.0, 25 °C; 20.8 μM aptamer, 300 μM KANA in syringe; KD above 200 μM undetectable
[10] = test system: s12_13_82m8 (DNA, aptamer) GCGATCAAGGTCGGAGCGTTTTCGCGAGTCGGCTGGATCGC; assay: ITC; conditions: 50 mM Na+, 3 mM Mg2+; BB: 20 mM Tris-acetate, pH 7.4, 25 °C
[11] = test system: s25_Kana6-1 (DNA, aptamer) GACGACGAGGGCCTGAAACTTGCTGGAACGGTTAAAGTCGTC; assay: ITC; conditions: 300 mM Na acetate, 10 mM Mg2+, 5 mM K+; SB3: 50 mM MES-NaOH, pH 7.0, 25 °C
[12] = test system: s12_13_82m2 (DNA, aptamer) GCGATCAAGGTCGGAGCGAGAATTTTTTCGCGGAGTCGGCTGGATCGC; assay: ITC; conditions: 50 mM Na+, 3 mM Mg2+; BB: 20 mM Tris-acetate, pH 7.4, 25 °C
[13] = test system: s12_13_82m6 (DNA, aptamer) GCGCGATCAAGGTCGGAGCGCAGTTGCGGAGTCGGCTGGATCGCGC; assay: ITC; conditions: 50 mM Na+, 3 mM Mg2+; BB: 20 mM Tris-acetate, pH 7.4, 25 °C
[14] = test system: s25_Kana6-5 (DNA, aptamer) GACGACGCAGTTGGCTTAGCGTAGGTAAAGGTCGATGTCGTC; assay: CD spectroscopy; conditions: 300 mM Na acetate, 10 mM Mg2+, 5 mM K+; SB3: 50 mM MES-NaOH, pH 7.0, 25 °C; 2 μM aptamer, 20 μM KANA
[15] = test system: s25_Kana6-5 (DNA, aptamer) GACGACGCAGTTGGCTTAGCGTAGGTAAAGGTCGATGTCGTC; assay: ITC; conditions: 300 mM Na acetate, 10 mM Mg2+, 5 mM K+; SB3: 50 mM MES-NaOH, pH 7.0, 25 °C

Structure (SMILES)	binding [1]	binding [2]	KD [3] [nM]	binding [4]	KD [1] [mM]	KD [2] [mM]	KD [5] [mM]	binding [6]	binding [7]	binding [8]	binding [9]	KD [10] [mM]	KD [11] [nM]	KD [12] [mM]	KD [13] [mM]	binding [14]	KD [15] [nM]
CN[C@@H]1[C@H](O[C@H]2[C@H](O[C@H]3[C@H](O)[C@@H](O)[C@H](N=C(N)N)[C@@H](O)[C@@H]3N=C(N)N)O[C@@H](C)[C@]2(O)C=O)O[C@@H](CO)[C@H](O)[C@H]1O	no	no	–	–	–	–	–	–	–	–	–	–	–	–	–	–	–
NC[C@@H]1O[C@H](O[C@H]2[C@@H](O)[C@H](O[C@@H]3[C@@H](O)[C@H](N)C[C@H](N)[C@H]3O[C@H]3O[C@H](CN)[C@@H](O)[C@H](O)[C@H]3N)O[C@@H]2CO)[C@H](N)[C@@H](O)[C@@H]1O	no	no	–	–	–	–	–	–	–	–	–	–	–	–	–	–	–
NC[C@H]1O[C@H](O[C@H]2[C@H](O)[C@@H](O[C@H]3O[C@H](CO)[C@@H](O)[C@H](N)[C@H]3O)[C@H](N)C[C@@H]2N)[C@H](O)[C@@H](O)[C@@H]1O	–	–	96 ± 8.7	no	0.00047 ± 4e-05	0.000109 ± 1.49e-05	0.000106 ± 8.7e-06	no	yes	yes	no	0.0022 ± 0.000352	2230 ± 240	0.000101 ± 8e-06	0.000519 ± 4.84e-05	yes	870 ± 40
